The structures appear in SMILES notation.

Drawing on patent US20180155344A1, “TRICYCLIC PIPERIDINE COMPOUNDS” (ACTELION PHARMACEUTICALS LTD, priority 2015, published 2018), this text covers IC50 for ten compounds.

The test deals with T1, human TPH1 (Homo sapiens, UniProt P17752).
T1 sequence (P17752 1-444): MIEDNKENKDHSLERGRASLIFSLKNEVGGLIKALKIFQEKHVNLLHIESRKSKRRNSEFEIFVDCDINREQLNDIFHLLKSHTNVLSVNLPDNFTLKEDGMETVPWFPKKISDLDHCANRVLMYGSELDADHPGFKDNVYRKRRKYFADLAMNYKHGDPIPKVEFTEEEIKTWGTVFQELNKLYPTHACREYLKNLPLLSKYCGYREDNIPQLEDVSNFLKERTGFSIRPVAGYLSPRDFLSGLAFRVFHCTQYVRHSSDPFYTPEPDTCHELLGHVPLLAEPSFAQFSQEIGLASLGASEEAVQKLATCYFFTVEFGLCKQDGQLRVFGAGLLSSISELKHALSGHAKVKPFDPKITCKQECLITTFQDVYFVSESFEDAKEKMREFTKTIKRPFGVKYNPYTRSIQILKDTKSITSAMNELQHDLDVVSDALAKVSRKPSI
The test is described as follows: biochemical. The source says: Biochemical In Vitro Assay Using Fluorescence Readout
To generate the enzyme, full length human TPH1 is cloned into the plasmid pET20b(+) (Novagen) and expressed in E. coli. The bacterial cells are ruptured by sonication on ice and the lysate is cleared by centrifugation. The resulting protein in the pellet is re-extracted and TPH1 is purified from the obtained lysate by affinity chromatography using a pterin cosubstrate analog immobilized to the resin of the column. The protein is further purified by size exclusion chromatography to remove protein aggregates. The activity of TPH1 is determined by using a fluorescence assay. The enzyme activity assay is carried out at 15° C. with atmosphere oxygen for the duration of 60 minutes in a volume of 64 μl. The reaction is carried out in a 0.1 M Tris-HCl buffer, adjusted to pH 7.6, containing 1 mM DTT, 0.2 mg/mL catalase, 100 μM (±)-6-methyl-5,6,7,8-tetrahydropterine dihydrochloride, 40 μM L-tryptophan, and 40-80 nM of TPH1. The reaction is started by bringing together L-tryptophan with all the other reaction substituents and stopped by quenching with perchloric acid (HClO4). The amount of 5-hydroxy-L-tryptophan produced during the enzymatic reaction is determined by fluorescence readout. Fluorescence, as determined at 540 nm when excited at 300 nm wavelength, increases proportionally to the 5-hydroxy-L-tryptophan formed. Compounds are prepared as 10 mM stock solution in DMSO, then diluted in 384-well plates using DMSO followed by a transfer of the dilutions into the assay plate. Fluorescence is measured for each well and the fluorescence at 540 nm wavelength is compared to the fluorescence of the vehicle in place of compound. […] The calculated IC50 values may fluctuate depending on the daily biochemical assay performance. Fluctuations of this kind are known to those skilled in the art.
With `COc1cc(F)c(C2c3c(nc4cc(C(F)(F)F)ccn34)CCN2C(=O)COc2ccc3ccccc3c2)cc1OC` (stereo not shown) [Example 3.18.1, 1-(1-(2-fluoro-4,5-dimethoxyphenyl)-7-(trifluoromethyl)-3,4-dihydroimidazo[1,2-a:5,4-c′]dipyridin-2(1H)-yl)-2-(naphthalen-2-yloxy)ethan-1-one], half-maximal inhibition (IC50) required 0.005 µM. With `O=C(COc1ccc(CN2CCOCC2)cc1Cl)N1CCc2nc3cc(C(F)(F)F)ccn3c2C1c1ncn2ccccc12` (stereo not shown) [Example 3.48.1, 2-(2-chloro-4-(morpholinomethyl)phenoxy)-1-(1-(imidazo[1,5-a]pyridin-1-yl)-7-(trifluoromethyl)-3,4-dihydroimidazo[1,2-a:5,4-c′]dipyridin-2(1H)-yl)ethan-1-one], it took 0.214 µM to reach half-maximal inhibition (IC50). The compound `CC(C)(O)c1ccc(C2c3c(nc4ccccn34)CCN2C(=O)COc2ccc(C(=O)NC3CC3)nc2Cl)c(F)c1` (stereo not shown) [Example 1.16.1, 6-chloro-N-cyclopropyl-5-(2-(1-(2-fluoro-4-(2-hydroxypropan-2-yl)phenyl)-3,4-dihydroimidazo[1,2-a:5,4-c′]dipyridin-2(1H)-yl)-2-oxoethoxy)picolinamide] displayed an IC50 of 0.244 µM. For `COC(C)(C)c1ccc(C2c3c(nc4ccccn34)CCN2C(=O)COc2ccc(NS(C)(=O)=O)nc2Cl)c(F)c1` (stereo not shown) [Example 1.17.2, N-(6-chloro-5-(2-(1-(2-fluoro-4-(2-methoxypropan-2-yl)phenyl)-3,4-dihydroimidazo[1,2-a:5,4-c′]pyridin-2(1H)-yl)-2-oxoethoxy)pyridin-2-yl)methanesulfonamide], 0.591 µM corresponded to half-maximal inhibition (IC50). `O=C(COc1ccc(N2CCOCC2)nc1Cl)N1CCc2nc3ccccn3c2C1c1ncc(Cl)cc1F` (stereo not shown) [Example 1.14.1, 1-(1-(5-chloro-3-fluoropyridin-2-yl)-3,4-dihydroimidazo[1,2-a:5,4-c′]dipyridin-2(1H)-yl)-2-((2-chloro-6-morpholinopyridin-3-yl)oxy)ethan-1-one] registered an IC50 of 0.004 µM. In turn, `O=C(COc1ccc(CN2CCOCC2)cc1Cl)N1CCc2nc3cc(C(F)(F)F)ccn3c2C1c1cc(-c2ccccc2)on1` (stereo not shown) [Example 3.46.1, 2-(2-chloro-4-(morpholinomethyl)phenoxy)-1-(1-(5-phenylisoxazol-3-yl)-7-(trifluoromethyl)-3,4-dihydroimidazo[1,2-a:5,4-c′]dipyridin-2(1H)-yl)ethan-1-one] yielded an IC50 of 0.022 µM. `COc1cc(F)c(C2c3c(nc4cc(C(F)(F)F)ccn34)CCN2C(=O)COc2ccc(C3(N4CCOCC4)COC3)cc2Cl)cc1OC` (stereo not shown) [Example 3.18.10, 2-(2-chloro-4-(3-morpholinooxetan-3-yl)phenoxy)-1-(1-(2-fluoro-4,5-dimethoxyphenyl)-7-(trifluoromethyl)-3,4-dihydroimidazo[1,2-a:5,4-c′]dipyridin-2(1H)-yl)ethan-1-one] returned an IC50 of 0.025 µM.

For `O=C(COc1ccc(CN2CCOCC2)cc1Cl)N1CCc2nc3cc(C(F)(F)F)ccn3c2C1c1ncccc1F` (stereo not shown) [Example 3.21.2, 2-(2-chloro-4-(morpholinomethyl)phenoxy)-1-(1-(3-fluoropyridin-2-yl)-7-(trifluoromethyl)-3,4-dihydroimidazo[1,2-a:5,4-c′]dipyridin-2(1H)-yl)ethan-1-one], the IC50 came out at 0.345 µM. Consider `COc1ccc(C2c3c(nc4cc(Cl)ccn34)CCN2C(=O)COc2nn(C)c(C(F)(F)F)c2Cl)c(F)c1` (stereo not shown) [Example 2.3.3, 1-(7-chloro-1-(2-fluoro-4-methoxyphenyl)-3,4-dihydroimidazo[1,2-a:5,4-c′]dipyridin-2(1H)-yl)-2-((4-chloro-1-methyl-5-(trifluoromethyl)-1H-pyrazol-3-yl)oxy)ethan-1-one], for which the IC50 is 0.208 µM. As to `COc1ccc(C2c3c(nc4cc(Cl)ccn34)CCN2C(=O)COc2ccc(CN3CCOCC3)cc2Cl)cc1OCCO` (stereo not shown) [Example 2.13.2, 1-(7-chloro-1-(3-(2-hydroxyethoxy)-4-methoxyphenyl)-3,4-dihydroimidazo[1,2-a:5,4-c′]dipyridin-2(1H)-yl)-2-(2-chloro-4-(morpholinomethyl)phenoxy)ethan-1-one], inhibition was half-maximal at 0.023 µM (IC50).

One may read the IC50 as the concentration that gives 50% inhibition. Higher therefore signals lower potency.
